Data reported in ChEMBL document CHEMBL5325484, “Quinolinetrione-tacrine hybrids as multi-target-directed ligands against Alzheimer's disease” (Bioorg Med Chem, 2023).

Experiments:
[1] = system: HepG2; assay: Cytotoxicity against human HepG2 cells assessed as reduction in cell viability at 1 uM incubated for 24 hrs by MTT assay; type: toxicity, cell-based; conditions: hepg2, 24 h
[2] = system: HepG2; assay: Cytotoxicity against human HepG2 cells assessed as reduction in cell viability at 100 uM incubated for 24 hrs by MTT assay; type: toxicity, cell-based; conditions: hepg2, 24 h
[3] = molecular target: Acetylcholinesterase (Homo sapiens, UniProt P22303); assay: Inhibition of recombinant human AChE using acetylthiocholine iodide as substrate preincubated with compound for 20 mins followed by substrate addition and measured after 240 sec by spectrophotometer based Ellman's method
[4] = system: HepG2; assay: Cytotoxicity against human HepG2 cells assessed as reduction in cell viability at 10 uM incubated for 24 hrs by MTT assay relative to control; type: toxicity, cell-based; conditions: hepg2, 24 h
[5] = molecular target: Cholinesterase (Homo sapiens, UniProt P06276); assay: Inhibition of human serum BChE using butyrylthiocholine iodide as substrate preincubated with compound for 20 mins followed by substrate addition and measured after 240 sec by spectrophotometer based Ellman's method; type: cell-free
Chain of Cholinesterase (P06276 whole entry): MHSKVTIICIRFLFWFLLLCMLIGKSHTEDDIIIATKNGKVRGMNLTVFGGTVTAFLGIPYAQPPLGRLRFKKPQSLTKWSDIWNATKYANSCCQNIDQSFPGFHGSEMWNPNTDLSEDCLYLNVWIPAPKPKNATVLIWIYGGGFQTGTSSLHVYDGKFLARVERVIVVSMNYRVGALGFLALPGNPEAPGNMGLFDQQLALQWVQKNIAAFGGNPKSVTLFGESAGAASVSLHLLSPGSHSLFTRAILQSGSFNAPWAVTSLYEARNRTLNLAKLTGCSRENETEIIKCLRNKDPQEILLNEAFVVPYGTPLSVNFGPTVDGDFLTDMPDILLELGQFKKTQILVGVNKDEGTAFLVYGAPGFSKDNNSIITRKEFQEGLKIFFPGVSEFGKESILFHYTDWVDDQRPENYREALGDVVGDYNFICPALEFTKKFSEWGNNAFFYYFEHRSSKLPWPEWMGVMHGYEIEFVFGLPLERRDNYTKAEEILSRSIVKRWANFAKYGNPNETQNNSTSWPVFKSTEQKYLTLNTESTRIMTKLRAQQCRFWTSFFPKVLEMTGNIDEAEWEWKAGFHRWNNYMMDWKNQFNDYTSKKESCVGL

Chain of Acetylcholinesterase (P22303 whole entry): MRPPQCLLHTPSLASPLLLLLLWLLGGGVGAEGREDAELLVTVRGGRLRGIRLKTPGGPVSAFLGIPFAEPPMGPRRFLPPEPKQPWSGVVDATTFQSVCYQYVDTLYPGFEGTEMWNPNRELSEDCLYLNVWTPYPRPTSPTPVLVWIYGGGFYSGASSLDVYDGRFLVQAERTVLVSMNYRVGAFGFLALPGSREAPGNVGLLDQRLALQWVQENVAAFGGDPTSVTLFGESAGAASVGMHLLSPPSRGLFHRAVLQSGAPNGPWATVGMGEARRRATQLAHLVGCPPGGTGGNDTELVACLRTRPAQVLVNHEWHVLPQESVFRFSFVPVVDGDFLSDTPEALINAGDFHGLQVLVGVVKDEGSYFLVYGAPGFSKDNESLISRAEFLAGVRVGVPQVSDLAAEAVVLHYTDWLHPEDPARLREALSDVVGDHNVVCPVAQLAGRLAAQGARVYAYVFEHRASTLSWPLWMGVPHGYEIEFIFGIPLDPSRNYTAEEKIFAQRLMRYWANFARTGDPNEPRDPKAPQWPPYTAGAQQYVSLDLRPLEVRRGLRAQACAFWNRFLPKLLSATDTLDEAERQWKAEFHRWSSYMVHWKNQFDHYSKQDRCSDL

Structure (SMILES): Cc1cc(=O)[nH]c2c1C(=O)C(NCCCCNc1c3c(nc4ccccc14)CCCC3)=CC2=O
- Activity [1]: Non-Toxic
- Activity [2]: Toxic
- IC50 [3]: 58.3 nM
- Activity [4]: 14%
- IC50 [5]: 109 nM

Structure (SMILES): Cc1cc(=O)[nH]c2c1C(=O)C(NCCNc1c3c(nc4ccccc14)CCCC3)=CC2=O
- Activity [1]: Non-Toxic
- Activity [2]: Toxic
- IC50 [3]: 667 nM
- Activity [4]: 12%
- IC50 [5]: 182 nM

Structure (SMILES): Cc1cc(=O)[nH]c2c1C(=O)C(NCCCNc1c3c(nc4cc(Cl)ccc14)CCCC3)=CC2=O
- Activity [1]: Non-Toxic
- Activity [2]: Toxic
- IC50 [3]: 11.1 nM
- Activity [4]: 50%
- IC50 [5]: 1340 nM

Structure (SMILES): Cc1cc(=O)[nH]c2c1C(=O)C(NCCNc1c3c(nc4cc(Cl)ccc14)CCCC3)=CC2=O
- Activity [1]: Non-Toxic
- Activity [2]: Toxic
- IC50 [3]: 121 nM
- Activity [4]: 50%
- IC50 [5]: 2100 nM

Structure (SMILES): Cc1cc(=O)[nH]c2c1C(=O)C(NCCCCNc1c3c(nc4cc(Cl)ccc14)CCCC3)=CC2=O
- Activity [1]: Non-Toxic
- Activity [2]: Toxic
- IC50 [3]: 5.58 nM
- Activity [4]: 50%
- IC50 [5]: 2830 nM
